The values that follow come from ChEMBL document CHEMBL1129588, “Development of potent thrombin receptor antagonist peptides” (J Med Chem, 1996).

For orientation: IC50 means the concentration needed to halve the response being measured. A lower IC50 goes with inhibition by little substance.

The target in the experiment is T1, Proteinase-activated receptor 1 (Homo sapiens, UniProt P25116).
T1 sequence (P25116 whole entry): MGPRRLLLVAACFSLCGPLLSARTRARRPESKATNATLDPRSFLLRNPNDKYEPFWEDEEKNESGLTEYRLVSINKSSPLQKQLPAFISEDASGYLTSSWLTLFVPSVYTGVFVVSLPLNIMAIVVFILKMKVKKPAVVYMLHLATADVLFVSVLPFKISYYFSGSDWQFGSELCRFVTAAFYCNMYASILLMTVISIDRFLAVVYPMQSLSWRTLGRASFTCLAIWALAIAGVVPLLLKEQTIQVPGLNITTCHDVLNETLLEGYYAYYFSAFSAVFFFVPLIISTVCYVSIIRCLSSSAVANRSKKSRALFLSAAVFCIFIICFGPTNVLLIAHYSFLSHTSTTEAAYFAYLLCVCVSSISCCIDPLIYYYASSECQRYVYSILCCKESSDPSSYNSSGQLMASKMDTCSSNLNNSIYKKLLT
With `CC(=O)N(C(=O)c1cccc(C2CCCCC2)c1)[C@@H](Cc1ccc(F)cc1)C(=O)N[C@@H](Cc1ccc(NC(=N)N)cc1)C(=O)N[C@@H](CC(C)C)C(=O)N[C@@H](CCCN=C(N)N)C(N)=O`, the IC50 stood at 2320 nM.

`CC(=O)N(C(=O)c1ccccc1N)[C@@H](Cc1ccc(F)cc1)C(=O)N[C@@H](Cc1ccc(NC(=N)N)cc1)C(=O)N[C@@H](CC(C)C)C(=O)N[C@@H](CCCN=C(N)N)C(N)=O` yielded an IC50 of 1000 nM.

Take `CC(=O)N(CC(=O)N[C@@H](Cc1ccc(NC(=N)N)cc1)C(=O)N[C@@H](CC(C)C)C(=O)N[C@@H](CCCN=C(N)N)C(N)=O)C(=O)/C=C/c1ccccc1`: the IC50 was more than 30000 nM.

`CC(=O)N(C(=O)/C=C/c1ccccc1)[C@@H](Cc1ccc(F)cc1)C(=O)N[C@@H](Cc1ccc([N+](=O)[O-])cc1)C(=O)N[C@@H](CC(C)C)C(=O)N[C@@H](CCCN=C(N)N)C(N)=O` showed an IC50 of 7550 nM.

With `CC(=O)N(C(=O)/C=C/c1ccc(F)cc1)[C@@H](Cc1ccc(F)cc1)C(=O)N[C@@H](Cc1ccc(NC(=N)N)cc1)C(=O)N[C@@H](CC(C)C)C(=O)N[C@@H](CCCN=C(N)N)C(N)=O` (stereo in doubt; 43), the IC50 was 20 nM. Compared with the last molecule, the IC50 is about 380-fold lower.

`CCCCC/C=C/CC(=O)N(C(C)=O)[C@@H](Cc1ccc(F)cc1)C(=O)N[C@@H](Cc1ccc(NC(=N)N)cc1)C(=O)N[C@@H](CC(C)C)C(=O)N[C@@H](CCCN=C(N)N)C(N)=O` showed an IC50 of 35 nM.

Consider `CC(=O)N(C(=O)/C=C/c1ccccc1)[C@@H](Cc1ccc(F)cc1)C(=O)N[C@@H](Cc1ccc(NC(=N)N)cc1)C(=O)N[C@@H](CC(C)C)C(=O)N[C@@H](CCCN=C(N)N)C(=O)N[C@@H](CCCN)C(=O)CCC(N)=O`, for which the IC50 turned out to be 21.9 nM.

`CC(=O)N(C(=O)CSc1ccccc1)[C@@H](Cc1ccc(F)cc1)C(=O)N[C@@H](Cc1ccc(NC(=N)N)cc1)C(=O)N[C@@H](CC(C)C)C(=O)N[C@@H](CCCN=C(N)N)C(N)=O` came in with an IC50 of 19 nM.

In turn, `CC(=O)N(C(=O)/C=C/c1ccccc1)[C@@H](Cc1ccccc1)C(=O)N[C@@H](Cc1ccc(NC(=N)N)cc1)C(=O)N[C@@H](CC(C)C)C(=O)N[C@@H](CCCN=C(N)N)C(N)=O` yielded an IC50 of 24 nM.

`CC(=O)N(C(=O)c1cc2ccccc2oc1=O)[C@@H](Cc1ccc(F)cc1)C(=O)N[C@@H](Cc1ccc(NC(=N)N)cc1)C(=O)N[C@@H](CC(C)C)C(=O)N[C@@H](CCCN=C(N)N)C(N)=O` displayed an IC50 of 4330 nM.

`CC(C)C[C@H](NC(=O)[C@@H](N)CCCN=C(N)N)C(=O)N[C@@H](CCCN)C(=O)N[C@@H](Cc1ccc(F)cc1)C(=O)NC(=O)/C=C/c1ccccc1` registered a concentration for half-maximal inhibition (IC50) of 170 nM.

The molecule `CC(=O)N(C(=O)/C=C/c1ccc(F)cc1)[C@@H](Cc1ccc(F)cc1)C(=O)N[C@@H](Cc1ccc(NC(=N)N)cc1)C(=O)N[C@@H](CC(C)C)C(=O)N[C@@H](CCCN=C(N)N)C(=O)N[C@@H](CCCN)C(=O)CC(N)=O` came in with an IC50 of 25 nM.

Regarding `CC(=O)N(C(=O)/C=C/c1ccc(O)cc1)[C@@H](Cc1ccc(F)cc1)C(=O)N[C@@H](Cc1ccc(NC(=N)N)cc1)C(=O)N[C@@H](CC(C)C)C(=O)N[C@@H](CCCN=C(N)N)C(N)=O`, it took 62 nM to reach half-maximal inhibition (IC50).

On to `CC(=O)N(C(=O)/C=C/c1ccccc1)[C@@H](Cc1ccc(F)cc1)C(=O)N[C@@H](CCCCN=C(N(C)C)N(C)C)C(=O)N[C@@H](CC(C)C)C(=O)N[C@@H](CCCN=C(N)N)C(N)=O`, for which the IC50 amounted to 130 nM.

As for `CC(=O)N(C(=O)Cc1cccc2ccccc12)[C@@H](Cc1ccc(F)cc1)C(=O)N[C@@H](Cc1ccc(NC(=N)N)cc1)C(=O)N[C@@H](CC(C)C)C(=O)N[C@@H](CCCN=C(N)N)C(N)=O`, inhibition was half-maximal at 1630 nM (IC50).

`CC(=O)N(C(=O)/C=C/c1ccccc1)[C@@H](Cc1ccc(F)cc1)C(=O)NC(=O)NCCC[C@H](NC(=O)[C@H](CC(C)C)NC(=O)[C@@H](N)CCCN=C(N)N)C(=O)O` registered an IC50 of 1040 nM.

`CC(=O)N(c1cccc(F)c1)[C@@H](Cc1ccc(F)cc1)C(=O)N[C@@H](Cc1ccc(NC(=N)N)cc1)C(=O)N[C@@H](CC(C)C)C(=O)N[C@@H](CCCN=C(N)N)C(N)=O` returned an IC50 of 160 nM.
